This is an account of results in ChEMBL document CHEMBL2150937, “Elaiomycins D-F, antimicrobial and cytotoxic azoxides from Streptomyces sp. strain HKI0708” (J Nat Prod, 2012).

A word on the CC50: it is the concentration that lowers cell viability or growth by half. Higher therefore signals better tolerance by the cells. By GI50 is commonly meant the concentration that inhibits growth by half. A high value points to less potent growth inhibition.

Molecules are shown by their SMILES. In brackets after ≈: the same amount, converted by molar mass.

The first experiment has as its system Bacillus subtilis. Put plainly: Antibacterial activity against Bacillus subtilis 6633 B1 assessed as zone of inhibition at 50 ug/disc after 24 hrs by agar diffusion assay. Conditions: 6633 B1, 24 h, read-out: IZ. In kind it is functional.
On to `CCCCCCCC/[N+]([O-])=N/[C@@H](COC)[C@H](C)O` [ELAIOMYCIN F], for which the zone of inhibition at 50 µg/disc amounted to 0 mm.

The subject of a further experiment is Escherichia coli. The experiment in a line: Antibacterial activity against Escherichia coli 458 B4 assessed as zone of inhibition at 50 ug/disc after 24 hrs by agar diffusion assay. In kind it is functional. The note with it: 458 B4, 24 h, read-out: IZ. For orientation: In agar diffusion tests the substance spreads into inoculated agar from a disc or well.
On to `CCCCCCCC/[N+]([O-])=N/[C@@H](COC)[C@H](C)O` [ELAIOMYCIN F], for which the zone of inhibition at 50 µg/disc amounted to 0 mm.

For a further experiment, the system named is HeLa. The experiment in a line: Cytotoxicity against human HeLa cells. Format: functional.
Details: not given
For `CCCCCCCC/[N+]([O-])=N/[C@@H](COC)[C@H](C)O` [ELAIOMYCIN F], the cytotoxic concentration (CC50) worked out at 30.5 µg/mL (≈ 117 µM).

In another experiment the test system is Mycolicibacterium vaccae. The experiment in a line: Antibacterial activity against Mycobacterium vaccae 10670 M4 assessed as zone of inhibition at 50 ug/disc after 24 hrs by agar diffusion assay. In kind it is functional. Conditions: 10670 M4, 24 h, read-out: IZ.
For the molecule `CCCCCCCC/[N+]([O-])=N/[C@@H](COC)[C@H](C)O` [ELAIOMYCIN F], the zone of inhibition at 50 µg/disc stood at 0 mm.

The next experiment relates to Aspergillus niger. The experiment in a line: Antifungal activity against Aspergillus niger DSM 737 assessed as zone of inhibition at 50 ug/disc after 24 hrs by agar diffusion assay. Format: functional. Conditions: DSM 737, 24 h, read-out: IZ.
Take `CCCCCCCC/[N+]([O-])=N/[C@@H](COC)[C@H](C)O` [ELAIOMYCIN F]: the zone of inhibition at 50 µg/disc came out at 0 mm.

For the next experiment, the system named is Aspergillus terreus. The experiment in a line: Antifungal activity against amphotericin-resistant Aspergillus terreus DSM 826 assessed as zone of inhibition at 50 ug/disc after 24 hrs by agar diffusion assay. In kind it is functional. The note with it: DSM 826, 24 h, read-out: IZ.
With `CCCCCCCC/[N+]([O-])=N/[C@@H](COC)[C@H](C)O` [ELAIOMYCIN F], the zone of inhibition at 50 µg/disc stood at 0 mm.

Another experiment concerns Enterococcus faecalis. Put plainly: Antibacterial activity against vancomycin-resistant Enterococcus faecalis 1528 R10 assessed as zone of inhibition at 50 ug/disc after 24 hrs by agar diffusion assay. In kind it is functional. Conditions: 1528 R10, 24 h, read-out: IZ.
`CCCCCCCC/[N+]([O-])=N/[C@@H](COC)[C@H](C)O` [ELAIOMYCIN F]: the zone of inhibition at 50 µg/disc turned out to be 0 mm.

The test system of a further experiment is HUVEC. The experiment in a line: Antiproliferative activity against HUVEC. Format: functional. Conditions: Homo sapiens.
`CCCCCCCC/[N+]([O-])=N/[C@@H](COC)[C@H](C)O` [ELAIOMYCIN F] returned a GI50 greater than 50 µg/mL.

A further experiment concerns Pseudomonas aeruginosa. Put plainly: Antibacterial activity against Pseudomonas aeruginosa K 799/61 B9 assessed as zone of inhibition at 50 ug/disc after 24 hrs by agar diffusion assay. Format: functional. The note with it: K 799/61 B9, 24 h, read-out: IZ.
In the case of `CCCCCCCC/[N+]([O-])=N/[C@@H](COC)[C@H](C)O` [ELAIOMYCIN F], the zone of inhibition at 50 µg/disc is 0 mm.

For the next experiment, the system named is Sporobolomyces salmonicolor. The experiment in a line: Antifungal activity against Sporidiobolus salmonicolor 549 H4 assessed as zone of inhibition at 50 ug/disc after 24 hrs by agar diffusion assay. In kind it is functional. The note with it: 549 H4, 24 h, read-out: IZ.
As to `CCCCCCCC/[N+]([O-])=N/[C@@H](COC)[C@H](C)O` [ELAIOMYCIN F], the zone of inhibition at 50 µg/disc amounted to 0 mm.

Another experiment deals with Penicillium chrysogenum. The experiment in a line: Antifungal activity against Penicillium notatum JP36 P1 assessed as zone of inhibition at 50 ug/disc after 24 hrs by agar diffusion assay. The note with it: JP36 P1, 24 h, read-out: IZ. Format: functional.
In the case of `CCCCCCCC/[N+]([O-])=N/[C@@H](COC)[C@H](C)O` [ELAIOMYCIN F], the zone of inhibition at 50 µg/disc worked out at 0 mm.

Another experiment deals with Aspergillus fumigatus. Put plainly: Antifungal activity against Aspergillus fumigatus ATCC 46645 assessed as zone of inhibition at 50 ug/disc after 24 hrs by agar diffusion assay. In kind it is functional. Conditions: ATCC 46645, 24 h, read-out: IZ.
For `CCCCCCCC/[N+]([O-])=N/[C@@H](COC)[C@H](C)O` [ELAIOMYCIN F], the zone of inhibition at 50 µg/disc amounted to 0 mm.

The next experiment relates to Staphylococcus aureus. The experiment in a line: Antibacterial activity against Staphylococcus aureus 511 B3 assessed as zone of inhibition at 50 ug/disc after 24 hrs by agar diffusion assay. In kind it is functional. The note with it: 511 B3, 24 h, read-out: IZ.
As for `CCCCCCCC/[N+]([O-])=N/[C@@H](COC)[C@H](C)O` [ELAIOMYCIN F], the zone of inhibition at 50 µg/disc was determined as 0 mm.

Another experiment relates to Candida albicans. Put plainly: Antifungal activity against Candida albicans H8 assessed as zone of inhibition at 50 ug/disc after 24 hrs by agar diffusion assay. In kind it is functional. Conditions: H8, 24 h, read-out: IZ.
In the case of `CCCCCCCC/[N+]([O-])=N/[C@@H](COC)[C@H](C)O` [ELAIOMYCIN F], the zone of inhibition at 50 µg/disc was 0 mm.

The next experiment deals with Staphylococcus aureus. The experiment in a line: Antibacterial activity against methicillin-resistant Staphylococcus aureus 134/93 R9 assessed as zone of inhibition at 50 ug/disc after 24 hrs by agar diffusion assay. In kind it is functional. Conditions: 134/93 R9, 24 h, read-out: IZ.
Turning to `CCCCCCCC/[N+]([O-])=N/[C@@H](COC)[C@H](C)O` [ELAIOMYCIN F], the zone of inhibition at 50 µg/disc amounted to 0 mm.

The subject of the next experiment is Pseudomonas aeruginosa. Put plainly: Antibacterial activity against Pseudomonas aeruginosa SG 137 B7 assessed as zone of inhibition at 50 ug/disc after 24 hrs by agar diffusion assay. Format: functional. Conditions: SG 137 B7, 24 h, read-out: IZ.
With `CCCCCCCC/[N+]([O-])=N/[C@@H](COC)[C@H](C)O` [ELAIOMYCIN F], the zone of inhibition at 50 µg/disc was found to be 0 mm.

A further experiment has as its system K562. Put plainly: Antiproliferative activity against human K562 cells. Format: functional.
Details: not given
Molecule `CCCCCCCC/[N+]([O-])=N/[C@@H](COC)[C@H](C)O` [ELAIOMYCIN F] displayed a GI50 greater than 50 µg/mL.
